Experimental findings from ChEMBL document CHEMBL5303304, “EUbOPEN Chemogenomics Library - IncuCyte” (2023) are described below.

Assay type in all cases: toxicity, cell-based
Data set [1] concerns U2OS. Description: Incucyte cell viability with U2OS. The conditions noted are these: human, 10 µM, compound concentration 10 uM.
Data set [2] concerns HEK-293T. Description: Incucyte cell viability with HEK293T. The settings on record: human, 10 µM, compound concentration 10 uM.
The subject of data set [3] is Fibroblast. Kind of data set: Incucyte cell viability with human fibroblast. The settings on record: 10 µM, compound concentration 10 uM.
Also: unitless GR value; below 1 slowed growth and below 0 cell loss.

In the case of `C=C(F)C(=O)N1CCN(c2nc(OC[C@@H]3CCCN3C)nc3c2CCN(c2cccc4cccc(Cl)c24)C3)C[C@@H]1CC#N` [ADAGRASIB], the “Growth Rate” value in data set [1] (0 h, replicate number 1) is -1; in data set [1] (0 h, replicate number 2), -0.94; in data set [1] (6 h, replicate number 1) it was -0.94; in data set [1] (6 h, replicate number 2), 0.32; in data set [1] (12 h, replicate number 1), -0.94; in data set [1] (12 h, replicate number 2) it was -0.11. The “Growth Rate” value is recorded as -0.89 in data set [1] (18 h, replicate number 1); -0.27 in data set [1] (18 h, replicate number 2); -0.76 in data set [1] (24 h, replicate number 1); -0.3 in data set [1] (24 h, replicate number 2); -0.26 in data set [2] (6 h, replicate number 1); -0.86 in data set [2] (6 h, replicate number 2). Further, the “Growth Rate” value in data set [2] (12 h, replicate number 1) was -0.28; in data set [2] (12 h, replicate number 2) it was -0.57; in data set [2] (18 h, replicate number 1), -0.25; in data set [2] (18 h, replicate number 2), -0.46; in data set [2] (24 h, replicate number 1), -0.21; in data set [2] (24 h, replicate number 2), -0.38. Moreover, the “Growth Rate” value in data set [3] (0 h, replicate number 1) is listed as -1; in data set [3] (6 h, replicate number 1), -0.47; in data set [3] (6 h, replicate number 2) it was -0.86; in data set [3] (12 h, replicate number 1), -0.27; in data set [3] (12 h, replicate number 2), -0.18; in data set [3] (18 h, replicate number 1) it was -0.26. For the same compound, the “Growth Rate” value in data set [3] (18 h, replicate number 2) was -0.27; in data set [3] (24 h, replicate number 1), -0.3; in data set [3] (24 h, replicate number 2) it was -0.22.

Consider `CN(CCCCCCC1=C(c2cc(F)cc(F)c2)CCCc2cc(O)ccc21)CCCCS(=O)(=O)CCCC(F)(F)F`, for which the “Growth Rate” value was -1 in data set [1] (0 h, replicate number 1); -0.54 in data set [1] (0 h, replicate number 2); -0.96 in data set [1] (6 h, replicate number 1); -0.93 in data set [1] (6 h, replicate number 2); -0.94 in data set [1] (12 h, replicate number 1); -0.68 in data set [1] (12 h, replicate number 2). The “Growth Rate” value in data set [1] (18 h, replicate number 1) is -0.87; in data set [1] (18 h, replicate number 2), -0.58; in data set [1] (24 h, replicate number 1) it was -0.72; in data set [1] (24 h, replicate number 2), -0.49; in data set [2] (6 h, replicate number 1), -0.95; in data set [2] (6 h, replicate number 2), -0.98. Moreover, the “Growth Rate” value in data set [2] (12 h, replicate number 1) was -0.48; in data set [2] (12 h, replicate number 2), -0.83; in data set [2] (18 h, replicate number 1), -0.16; in data set [2] (18 h, replicate number 2), -0.52; in data set [2] (24 h, replicate number 1), -0.1; in data set [2] (24 h, replicate number 2) it was -0.38. Moreover, the “Growth Rate” value in data set [3] (0 h, replicate number 1) is given as -1; in data set [3] (6 h, replicate number 1) it was -0.99; in data set [3] (6 h, replicate number 2), -1; in data set [3] (12 h, replicate number 1), -0.97; in data set [3] (18 h, replicate number 1), -0.89; in data set [3] (18 h, replicate number 2), -0.88. Further, the “Growth Rate” value in data set [3] (24 h, replicate number 1) is recorded as -0.77; in data set [3] (24 h, replicate number 2), -0.65.

Consider `Cl.Cl.NC1(c2ccc(-c3nc4ccn5c(=O)[nH]nc5c4cc3-c3ccccc3)cc2)CCC1`, for which the “Growth Rate” value in data set [1] (24 h, replicate number 1) was 1; in data set [2] (6 h, replicate number 1), -0.64; in data set [2] (6 h, replicate number 2) it was -0.68; in data set [2] (12 h, replicate number 1) it was -0.64; in data set [2] (12 h, replicate number 2) it was -0.42; in data set [2] (18 h, replicate number 1), -0.54. Moreover, the “Growth Rate” value was -0.27 in data set [2] (18 h, replicate number 2); -0.48 in data set [2] (24 h, replicate number 1); -0.24 in data set [2] (24 h, replicate number 2); -0.87 in data set [3] (6 h, replicate number 1); -1 in data set [3] (6 h, replicate number 2); -1 in data set [3] (12 h, replicate number 1). Besides, the “Growth Rate” value in data set [3] (12 h, replicate number 2) is -0.83; in data set [3] (18 h, replicate number 2), -0.54; in data set [3] (24 h, replicate number 2), -0.32.

For the compound `CC(=O)N1CCN([C@H]2CCC[C@@H](NC(=O)c3cc4c(F)ccc(C)c4[nH]3)C2)CC1.O=C(O)C(F)(F)F`, the “Growth Rate” value in data set [1] (0 h, replicate number 1) came out at 0.28; in data set [1] (0 h, replicate number 2), 0.78; in data set [1] (6 h, replicate number 2) it was 0.95; in data set [1] (12 h, replicate number 1), 0.84; in data set [1] (12 h, replicate number 2), 0.96; in data set [1] (18 h, replicate number 2) it was 0.94. The “Growth Rate” value in data set [1] (24 h, replicate number 1) is given as 0.99; in data set [1] (24 h, replicate number 2), 0.88; in data set [2] (0 h, replicate number 1), 0.94; in data set [2] (0 h, replicate number 2) it was -0.6; in data set [2] (6 h, replicate number 1), 0.9; in data set [2] (6 h, replicate number 2) it was 0.46. In addition, the “Growth Rate” value in data set [2] (12 h, replicate number 1) is 0.75; in data set [2] (12 h, replicate number 2), 0.4; in data set [2] (18 h, replicate number 2), 0.68; in data set [2] (24 h, replicate number 2), 0.48; in data set [3] (0 h, replicate number 1), -0.07; in data set [3] (0 h, replicate number 2), -0.08. For the same compound, the “Growth Rate” value in data set [3] (6 h, replicate number 2) came out at 0.42; in data set [3] (12 h, replicate number 2) it was 0.88; in data set [3] (18 h, replicate number 2) it was 0.88; in data set [3] (24 h, replicate number 2), 0.9.

`C[C@]12CC[C@@H]3c4ccc(C(N)=O)cc4CC[C@H]3[C@@H]1CC=C2c1cncc(F)c1`: the “Growth Rate” value in data set [1] (0 h, replicate number 1) is listed as 0.64; in data set [1] (12 h, replicate number 1), 0.98; in data set [1] (12 h, replicate number 2) it was 0.79; in data set [1] (18 h, replicate number 2), 0.92; in data set [1] (24 h, replicate number 2), 1; in data set [2] (0 h, replicate number 1), -0.13. In addition, the “Growth Rate” value is given as 0.93 in data set [2] (6 h, replicate number 1); -0.72 in data set [2] (6 h, replicate number 2); 0.9 in data set [2] (12 h, replicate number 1); 0.31 in data set [2] (12 h, replicate number 2); 0.96 in data set [2] (18 h, replicate number 1); 0.29 in data set [2] (18 h, replicate number 2). Also, the “Growth Rate” value is recorded as 0.97 in data set [2] (24 h, replicate number 1); 0.4 in data set [2] (24 h, replicate number 2); -0.92 in data set [3] (0 h, replicate number 2).

With `C[C@@H](CN1CC[C@@]2(C)c3cccc(O)c3C[C@@H]1C2(C)C)OCc1ccccc1.Cl`, the “Growth Rate” value was -0.32 in data set [1] (0 h, replicate number 1); 0.53 in data set [1] (6 h, replicate number 1); 0.85 in data set [1] (6 h, replicate number 2); 0.61 in data set [1] (12 h, replicate number 1); 0.78 in data set [1] (12 h, replicate number 2); 0.81 in data set [1] (18 h, replicate number 1). The “Growth Rate” value in data set [1] (18 h, replicate number 2) was 0.98; in data set [1] (24 h, replicate number 1) it was 0.79; in data set [2] (0 h, replicate number 1), 0.44; in data set [2] (0 h, replicate number 2) it was -0.22; in data set [2] (6 h, replicate number 1), 0.31; in data set [2] (12 h, replicate number 1) it was 0.74. In addition, the “Growth Rate” value was 0.77 in data set [2] (18 h, replicate number 1); 0.95 in data set [2] (18 h, replicate number 2); 0.8 in data set [2] (24 h, replicate number 1); 0.96 in data set [2] (24 h, replicate number 2); -1 in data set [3] (0 h, replicate number 1); 0.03 in data set [3] (6 h, replicate number 1). Further, the “Growth Rate” value is reported as -0.28 in data set [3] (6 h, replicate number 2); 0.93 in data set [3] (12 h, replicate number 2); 1 in data set [3] (18 h, replicate number 2); 0.98 in data set [3] (24 h, replicate number 2).

Take `Cn1c(C2(NC(=O)c3ccc(NCC4CCCCC4)nc3)CCC2)nc2ccc(/C=C/C(=O)O)cc21` [BI 7656]: the “Growth Rate” value in data set [1] (0 h, replicate number 1) was 0.79; in data set [1] (0 h, replicate number 2) it was 0.24; in data set [1] (6 h, replicate number 1) it was 0.81; in data set [1] (12 h, replicate number 1), 0.92; in data set [1] (24 h, replicate number 1) it was 0.92; in data set [1] (24 h, replicate number 2), 0.93. For the same compound, the “Growth Rate” value in data set [2] (0 h, replicate number 2) is listed as -0.78; in data set [2] (6 h, replicate number 1), 0.41; in data set [2] (12 h, replicate number 1), 0.81; in data set [3] (6 h, replicate number 2), -0.44; in data set [3] (12 h, replicate number 2) it was 0.82; in data set [3] (24 h, replicate number 1) it was 0.94. Moreover, in data set [3] (24 h, replicate number 2), the “Growth Rate” value was 0.72.
